Measured values: patent publication US8859574B2 (IRM LLC, priority 2008, dated 2014)

The compounds below were run against T1, IGF-1R Ba/F3 (Homo sapiens, UniProt P08069) (assay: Ba/F3 Cell Viability Inhibition Assay (IGF-1R Ba/F3)). Settings: Tel-TK transformed Ba/F3 cells, 48 hours, Britelite luminescence.
T1 construct: fused on or other part: TEL- (or BCR-) IGF-1R in Ba/F3: the kinase part holds the site
T1 sequence (P08069 999-1274 limits assumed): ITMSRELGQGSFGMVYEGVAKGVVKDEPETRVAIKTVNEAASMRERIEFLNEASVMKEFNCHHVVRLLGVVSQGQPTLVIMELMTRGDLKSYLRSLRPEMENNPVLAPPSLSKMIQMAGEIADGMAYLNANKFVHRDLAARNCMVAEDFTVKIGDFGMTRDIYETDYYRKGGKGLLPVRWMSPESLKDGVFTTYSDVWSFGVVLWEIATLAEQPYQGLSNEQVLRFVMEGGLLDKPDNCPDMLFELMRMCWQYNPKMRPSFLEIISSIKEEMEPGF
Format: cell-based, murine
Method in brief: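 IL-3-independent murine Ba/F3 cells transformed with a TEL/BCR-fused IGF-1R kinase were seeded at 3750 cells/well and exposed to serially diluted compound for 48 h at 37 °C. Viability was read by Britelite luminescence. IC50 is the concentration giving 50% of DMSO-control viability, from a logistic fit.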
For `Cc1cc(Nc2nc(Nc3cc(C)c(C4CCN(C(=O)CN5C(C)(C)CCCC5(C)C)CC4)cc3C)ncc2Cl)n[nH]1` [Compound 104, 1-(4-(4-(5-chloro-4-(5-methyl-1H-pyrazol-3-ylamino)pyrimidin-2-ylamino)-2,5-dimethylphenyl)piperidin-1-yl)-2-(2,2,6,6-tetramethylpiperidin-1-yl)ethanone], the IC50 was 18 nM. For `Cc1cc(Nc2nc(Nc3cc(C)c(C4CCN(C(=O)CN5CCN(C)CC5)CC4)cc3F)ncc2Cl)n[nH]1` [Compound 105, 1-(4-(4-(5-chloro-4-(5-methyl-1H-pyrazol-3-ylamino)pyrimidin-2-ylamino)-5-fluoro-2-methylphenyl)piperidin-1-yl)-2-(4-methylpiperazin-1-yl)ethanone], the IC50 was 51 nM. With `COCC(=O)N1CCC(c2cc(C)c(Nc3ncc(Cl)c(Nc4cc(C)[nH]n4)n3)cc2C)CC1` [Compound 106, 1-(4-(4-(5-chloro-4-(5-methyl-1H-pyrazol-3-ylamino)pyrimidin-2-ylamino)-2,5-dimethylphenyl)piperidin-1-yl)-2-methoxyethanone] the IC50 was 2 nM. For `CC(=O)NCC(=O)N1CCC(c2cc(F)c(Nc3ncc(Cl)c(Nc4cc(C)[nH]n4)n3)cc2C)CC1` [Compound 107, N-(2-(4-(4-(5-chloro-4-(5-methyl-1H-pyrazol-3-ylamino)pyrimidin-2-ylamino)-5-fluoro-2-methylphenyl)piperidin-1-yl)-2-oxoethyl)acetamide], the IC50 was 57 nM. Compound `Cc1cc(Nc2nc(Nc3cc(C)c(C4CCN(C(=O)OCCN(C)C)CC4)cc3F)ncc2Cl)n[nH]1` [Compound 108, (dimethylamino)ethyl 4-(4-(5-chloro-4-(5-methyl-1H-pyrazol-3-ylamino)pyrimidin-2-ylamino)-5-fluoro-2-methylphenyl)piperidine-1-carboxylate] has an IC50 of 53 nM. Work on `Cc1cc(Nc2nc(Nc3cc(C)c(C4CCN(C(=O)NCCN(C)C)CC4)cc3F)ncc2Cl)n[nH]1` [Compound 109, 4-(4-(5-chloro-4-(5-methyl-1H-pyrazol-3-ylamino)pyrimidin-2-ylamino)-5-fluoro-2-methylphenyl)-N-(2-(dimethylamino)ethyl)piperidine-1-carboxamide] yielded an IC50 of 60 nM. In the case of `CC(=O)N1CCC(c2cc(C)c(Nc3ncc(Cl)c(Nc4cc(C)[nH]n4)n3)cc2C)CC1` [Compound 110, 1-(4-(4-(5-chloro-4-(5-methyl-1H-pyrazol-3-ylamino)pyrimidin-2-ylamino)-2,5-dimethylphenyl)piperidin-1-yl)ethanone], the IC50 is reported as 13 nM. With `Cc1cc(Nc2nc(Nc3cc(C)c(C4CCN(C(=O)N5CCOCC5)CC4)cc3F)ncc2Cl)n[nH]1` [Compound 111, (4-(4-(5-chloro-4-(5-methyl-1H-pyrazol-3-ylamino)pyrimidin-2-ylamino)-5-fluoro-2-methylphenyl)piperidin-1-yl)(morpholino)methanone] the IC50 was 8 nM. `Cc1cc(Nc2nc(Nc3cc(C)c(C4CCN(C(=O)N5CCN(C)CC5)CC4)cc3F)ncc2Cl)n[nH]1` [Compound 112, (4-(4-(5-chloro-4-(5-methyl-1H-pyrazol-3-ylamino)pyrimidin-2-ylamino)-5-fluoro-2-methylphenyl)piperidin-1-yl)(4-methylpiperazin-1-yl)methanone] was tested, and the IC50 was 21 nM. `Cc1cc(Nc2nc(Nc3cc(C)c(C4CCN(C(=O)N5CCNC5=O)CC4)cc3C)ncc2Cl)n[nH]1` [Compound 113, 1-(4-(4-(5-chloro-4-(5-methyl-1H-pyrazol-3-ylamino)pyrimidin-2-ylamino)-2,5-dimethylphenyl)piperidine-1-carbonyl)imidazolidin-2-one] was tested, and the IC50 was 13 nM. Compound `CC(=O)N1CCC(C(=O)N2CCC(c3cc(F)c(Nc4ncc(Cl)c(Nc5cc(C)[nH]n5)n4)cc3C)CC2)CC1` [Compound 114] has an IC50 of 48 nM. With `Cc1cc(Nc2nc(Nc3cc(C)c(C4CCN(C(=O)C5CCNCC5)CC4)cc3F)ncc2Cl)n[nH]1` [Compound 115, (4-(4-(5-chloro-4-(5-methyl-1H-pyrazol-3-ylamino)pyrimidin-2-ylamino)-5-fluoro-2-methylphenyl)piperidin-1-yl)(piperidin-4-yl)methanone] the IC50 was 1570 nM. In the case of `Cc1cc(Nc2nc(Nc3cc(C)c(C4CCN(C(=O)[C@@H]5CCCN5)CC4)cc3F)ncc2Cl)n[nH]1` [Compound 116, (S)-(4-(4-(5-chloro-4-(5-methyl-1H-pyrazol-3-ylamino)pyrimidin-2-ylamino)-5-fluoro-2-methylphenyl)piperidin-1-yl)(pyrrolidin-2-yl)methanone], the IC50 is reported as 137 nM. `Cc1cc(Nc2nc(Nc3cc(C)c(C4CCN(C(=O)C5CN(C)C5)CC4)cc3F)ncc2Cl)n[nH]1` [Compound 117, (4-(4-(5-chloro-4-(5-methyl-1H-pyrazol-3-ylamino)pyrimidin-2-ylamino)-5-fluoro-2-methylphenyl)piperidin-1-yl)(1-methylazetidin-3-yl)methanone] showed an IC50 of 99 nM. In the case of `Cc1cc(Nc2nc(Nc3cc(C)c(C4CCN(C(=O)C5CCN(C)CC5)CC4)cc3F)ncc2Cl)n[nH]1` [Compound 118, (4-(4-(5-chloro-4-(5-methyl-1H-pyrazol-3-ylamino)pyrimidin-2-ylamino)-5-fluoro-2-methylphenyl)piperidin-1-yl)(1-methylpiperidin-4-yl)methanone], the IC50 is reported as 81 nM. Work on `Cc1cc(Nc2nc(Nc3cc(C)c(C4CCN(C(=O)C5CNC5=O)CC4)cc3F)ncc2Cl)n[nH]1` (stereo not shown) [Compound 119, 3-(4-(4-(5-chloro-4-(5-methyl-1H-pyrazol-3-ylamino)pyrimidin-2-ylamino)-5-fluoro-2-methylphenyl)piperidine-1-carbonyl)azetidin-2-one] yielded an IC50 of 2990 nM. For `Cc1cc(Nc2nc(Nc3cc(C)c(C4CCN(C(=O)C5CN(C)C5)CC4)cc3C)ncc2Cl)n[nH]1` [Compound 120, (4-(4-(5-chloro-4-(5-methyl-1H-pyrazol-3-ylamino)pyrimidin-2-ylamino)-2,5-dimethylphenyl)piperidin-1-yl)(1-methylazetidin-3-yl)methanone], the IC50 was 25 nM. `Cc1cc(Nc2nc(Nc3cc(C)c(C4CCN(C(=O)[C@@H]5CCCN5C)CC4)cc3C)ncc2Cl)n[nH]1` [Compound 121, (S)-(4-(4-(5-chloro-4-(5-methyl-1H-pyrazol-3-ylamino)pyrimidin-2-ylamino)-2,5-dimethylphenyl)piperidin-1-yl)(1-methylpyrrolidin-2-yl)methanone] was tested, and the IC50 was 17 nM. `Cc1cc(Nc2nc(Nc3cc(C)c(C4CCN(C(=O)[C@H]5C[C@@H](O)CN5C)CC4)cc3C)ncc2Cl)n[nH]1` [Compound 123, (4-(4-(5-chloro-4-(5-methyl-1H-pyrazol-3-ylamino)pyrimidin-2-ylamino)-2,5-dimethylphenyl)piperidin-1-yl)((2R,4R)-4-hydroxy-1-methylpyrrolidin-2-yl)methanone] was tested, and the IC50 was 48 nM. `Cc1cc(Nc2nc(Nc3cc(C)c(C4CCN(C(=O)c5ccc[nH]5)CC4)cc3F)ncc2Cl)n[nH]1` [Compound 124, (4-(4-(5-chloro-4-(5-methyl-1H-pyrazol-3-ylamino)pyrimidin-2-ylamino)-5-fluoro-2-methylphenyl)piperidin-1-yl)(1H-pyrrol-2-yl)methanone] was tested, and the IC50 was 145 nM. `Cc1cc(Nc2nc(Nc3cc(C)c(C4CCN(C(=O)[C@@H]5CCCCN5C(C)C)CC4)cc3F)ncc2Cl)n[nH]1` [Compound 125, (S)-(4-(4-(5-chloro-4-(5-methyl-1H-pyrazol-3-ylamino)pyrimidin-2-ylamino)-5-fluoro-2-methylphenyl)piperidin-1-yl)(1-isopropylpiperidin-2-yl)methanone] was tested, and the IC50 was 12 nM. With `Cc1cc(Nc2nc(Nc3cc(C)c(C4CCN(C(=O)[C@@H]5COCCN5C(C)C)CC4)cc3F)ncc2Cl)n[nH]1` [Compound 126, (S)-(4-(4-(5-chloro-4-(5-methyl-1H-pyrazol-3-ylamino)pyrimidin-2-ylamino)-5-fluoro-2-methylphenyl)piperidin-1-yl)(4-isopropylmorpholin-3-yl)methanone] the IC50 was 29 nM. `Cc1cc(Nc2nc(Nc3cc(C)c(C4CCN(C(=O)c5oc(C)nc5C)CC4)cc3F)ncc2Cl)n[nH]1` [Compound 127, (4-(4-(5-chloro-4-(5-methyl-1H-pyrazol-3-ylamino)pyrimidin-2-ylamino)-5-fluoro-2-methylphenyl)piperidin-1-yl)(2,4-dimethyloxazol-5-yl)methanone] showed an IC50 of 27 nM. `Cc1cc(Nc2nc(Nc3cc(C)c(C4CCN(C(=O)[C@@H]5CC(O)CN5C)CC4)cc3F)ncc2Cl)n[nH]1` (stereo partly drawn) [Compound 128, (4-(4-(5-chloro-4-(5-methyl-1H-pyrazol-3-ylamino)pyrimidin-2-ylamino)-5-fluoro-2-methylphenyl)piperidin-1-yl)((2S)-4-hydroxy-1-methylpyrrolidin-2-yl)methanone] was tested, and the IC50 was 175 nM. `Cc1cc(Nc2nc(Nc3cc(C)c(C4CCN(C(=O)c5c(C)nn(C)c5C)CC4)cc3F)ncc2Cl)n[nH]1` [Compound 129, (4-(4-(5-chloro-4-(5-methyl-1H-pyrazol-3-ylamino)pyrimidin-2-ylamino)-5-fluoro-2-methylphenyl)piperidin-1-yl)(1,3,5-trimethyl-1H-pyrazol-4-yl)methanone] showed an IC50 of 25 nM. With `Cc1cc(Nc2nc(Nc3cc(C)c(C4CCN(C(=O)c5cnn(C)c5C(F)(F)F)CC4)cc3F)ncc2Cl)n[nH]1` [Compound 130, (4-(4-(5-chloro-4-(5-methyl-1H-pyrazol-3-ylamino)pyrimidin-2-ylamino)-5-fluoro-2-methylphenyl)piperidin-1-yl)(1-methyl-5-(trifluoromethyl)-1H-pyrazol-4-yl)methanone] the IC50 was 61 nM. In the case of `Cc1cc(Nc2nc(Nc3cc(C)c(C4CCN(C(=O)C5CNC5)CC4)cc3F)ncc2Cl)n[nH]1` [Compound 131, Azetidin-3-yl(4-(4-(5-chloro-4-(5-methyl-1H-pyrazol-3-ylamino)pyrimidin-2-ylamino)-5-fluoro-2-methylphenyl)piperidin-1-yl)methanone], the IC50 is reported as 1250 nM. In the case of `Cc1cc(Nc2nc(Nc3cc(C)c(C4CCN(C(=O)[C@@H]5CCN5)CC4)cc3F)ncc2Cl)n[nH]1` [Compound 132, (S)-azetidin-2-yl(4-(4-(5-chloro-4-(5-methyl-1H-pyrazol-3-ylamino)pyrimidin-2-ylamino)-5-fluoro-2-methylphenyl)piperidin-1-yl)methanone], the IC50 is reported as 161 nM.
